{
  "source": "patent US20250049747A1",
  "about": "“USE OF HYPERPOLARIZING AGENTS ALONE AND IN COMBINATION WITH OTHER THERAPEUTIC AGENTS FOR TREATING CANCERS INCLUDING GLIOBLASTOMA” (Trustees of Tufts College, priority 2021, published 2025)",
  "key": {"NG108-15 cells [1]": {"test_system": "NG108-15 cells", "assay": "Automated patch-clamp electrophysiology, resting membrane potential", "type": "cell-based, mouse/rat", "details": "NG108-15, immediately after application", "description": "Electrophysiology. SyncroPatch 384PE platform (Nanion Technologies®) was used to perform the automated patch-clamp experiments. This system provides giga-ohm resistance seals during simultaneous recording in the 384-well plate format. Cells were harvested 48-72 h after seeding 1-2×10^6 cells in T175 culture flasks (Falcon), then cells were rinsed with PBS (5 mL) and treated with 3 mL Accutase ([…] technologies) for 5 min at 37° C., re-suspended in 10 mL of serum-free media and pelleted at 1000 rpm for 3 min at RT. […] The cells were kept until the moment of the experiment in a temperature controlled dedicated reservoir at 10° C. and shaken at 200 rpm as described. The experiments were performed within one hour after the harvesting process. The assays were carried in single-hole chips with resistances between 4-5 MΩ after priming the chip with the following solutions (in mM), physiological extracellular solution (pECS) 10 HEPES, 140 NaCl, 5 Glucose, 4 KCl, 2 CaCl2), 1 MgCl2, 295-305 mOsm pH 7.4 (NaOH). Internal recording solution (in mM) 20 EGTA, 50 KCl, 10 NaCl, 60 KF, 10 HEPES at pH 7.2, and 285 mOsm. 15 μL of the cell suspension (50% v/v pECS/Medium no serum) was added to each well to a final density of 50-80K cells/mL. Cell capture was promoted by holding a negative pressure of −100 mbar for 20 s. After successive hyperpolarization steps from −30 mV to −100 mV enhanced the capture the seal followed by the transient addition of a high Ca2+ extracellular solution (80 mM NaCl, 3 mM KCl, 35 mM CaCl2), 10 mM MgCl2, 10 mM HEPES at pH 7.4 and 298 mOsm. High Ca2+ solution is washed out by successive external exchanges replacing half of the volume of the well each time with the external recording solution. All recording solutions were prepared with ultrapure MilliQ water (18 MD-cm). After the formation of the Giga-seal, a 250 mbar pressure was applied to break the membrane patch. Once in whole-cell configuration, different voltage protocols were applied to dissect different conductances in NG108-15 cells. Signals were recorded in the current-clamp mode “I=0” (passive conditions) where no current was injected, to monitor the membrane potential. The membrane potentials were recorded for seven sweeps of 1 sec, with an inter-sweep time of 10 s. The average membrane potentials of the 7 sweeps were reported.\nElectrophysiology of NG108-15 Cells Show Changes in Resting Membrane Potential Induced by Treatment. […] Untreated cells were patched, baseline measurements were taken and then the drugs were added and the changes in the cell Vmem were recorded."}, "[2]": {"test_system": "human glioblastoma U87 cells", "assay": "Growth and FUCCI assays in U87 cells (cell counts, cell cycle, recovery test)", "type": "cell-based", "details": "for FUCCI cell cycle proportion: U87, day 6", "description": "U87 (ATCC) cells were cultured under the same conditions as the NG108-15 cells minus the HAT supplement and used at passage 7-10 for experiments."}, "NG108-15 cells [3]": {"test_system": "NG108-15 cells", "assay": "Growth and FUCCI assays in NG108-15 cells (cell counts, cell cycle, recovery test)", "details": "for cell proliferation compared to control (words): NG108-15, 6 days of treatment", "experimental": "Cells were plated in 96 well plates at a low confluence and drugs were added fresh every other day for 6 days. Some studies removed the drug at 6 days and added media with no drug for an additional 4 days to test for proliferation. Images of the cells were taken every day and a cell profiler pipeline was used to count the cells and determine the ratio of cells in each part of the cell cycle. […] Cell Culture. […] Cells were disassociated with Accutase and passaged when 70% confluent and maintained at 37° C. with 5% C02. Media was changed every two days. […] All drug screens including controls were done using 0.02% DMSO in the high serum Fluorobrite DMEM.\nGrowth and FUCCI assays. Both cell lines were plated at 5,000 cells per mL into black-walled flat-bottom 96-well plates coated with 1/50 dilution of Matrigel. Images of cells were taken on Day 0 and every subsequent day for 10 days using a Zeiss Axio1 fitted with an on-stage incubator and kept at 37° C. with 5% C02. A 5× objective was used along with filters for YFP, RFP, and CFP and careful calibration of each plate was done to ensure that the same fields of view were imaged each day. Drugs were added after the initial images were taken and then changed every two days until day 6. For recovery experiments, after imaging on day 6, all drugs were removed, and cells were put into imaging media without any added drugs. This media was changed every two days until day 10. Analysis of growth and snap shots of FUCCI reporters over the 6 days or 10 days was done using a CellProfiler [72]pipeline designed by the Broad. The fractional difference in cell number was calculated by dividing the total number of cells each day by the total number of cells from day 0. The ratio of cells in each cell cycle stage every day was determined by counting all the nuclei of one color and dividing it by the total number of nuclei. Blind quality control was done on all the images to make sure that any fibers or image artifacts were not incorrectly counted by the program."}, "NG108-15 cells [4]": {"test_system": "NG108-15 cells", "assay": "Antibody staining, BrdU and senescence assays in NG108-15 cells", "type": "cell-based, mouse/rat", "details": "NG108-15, 6 days", "description": "Antibody Staining, BrdU and Senescence Assays. NG108-15 cells were plated on PEI and Matrigel coated plates at 15,000 or 30,000 cells/mL, U87 cells at 10,000 cells/mL and grown in imaging media for 6 days with drug treatment. Fresh media was added every 2 days. On day 6, cells were fixed with 4% formaldehyde in PBS for 30 minutes for all antibody staining, except for BrdU which was fixed for 15 minutes, and for the senescence assay which was fixed for 20 min using the Senescence Beta-Galactosidase Staining Kit (9860, CellSignaling) and thereafter stained according to manufacturer's protocol. After fixing, cells were washed twice with PBS, and were permeabilized in PBS with 0.3% Triton-X for 15 min then washed again twice with PBS. The cells for the BrdU assay were additionally treated with 1N HCl for 10 min on ice, followed by a treatment with 2N HCl for 50 min at room temp. Cells were then blocked with standard blocking buffer comprised of TBS containing 10% goat serum, 0.1% BSA, and with 0.05% Tween 20 or without detergent for antibodies against phosphorylated proteins or monoclonal antibodies except for Anti-YAP and Anti-BrdU staining, which were done according to manufacturer's protocol. Primary antibodies were added at the following concentrations: 1:250 anti-S100 beta (GTX129573, Genetex), 1:500 anti-GFAP (AB5804, EMD-Millipore), 1:300 anti-SOX10 (ab155279, Abcam), 1:100 MAP2 (4542, CellSignaling), 1:400 anti-cleaved caspase 3 (9661, CellSignaling), 1:300 anti-Cx43 (STJ2411, St. John's Labratory), 1:800 anti-p27^Kip1 (3698, CellSignaling), 1:150 anti-BrdU (5292, CellSignaling), 1:125 anti-LC3-II (2775, CellSignaling), 8 μg/mL anti-04 (MAB1326, R&D Systems), 1:1000 anti-TH (RPCA-TH, Encor), 1:4000 anti-NSE (RPCA-NSE, Encor), 1:4000 anti-NFM (RPCA-NF-M, Encor), 0.5 μg/mL anti-TujI (801202, Biolegend), 1:400 anti-NF-KB p65 (8242, CellSignaling), 1:125 anti-phospho CREB (05-807, EMD-Millipore), 1:250 anti-vimentin (ab92547, Abcam), 1:125 anti-YAP (14074, CellSignaling). Antibodies were diluted in their respective blocking buffer and incubated overnight at 4° C. The next day, cells were washed with TBS-T or TBS for 3× for 5 min each and secondary antibody was added as follows: 1:1000 donkey anti-mouse 647 (A-31571, Thermo-Fisher) or 1:1000 donkey anti-rabbit 647 (A-31573, Thermo-Fisher). Each were diluted in blocking buffer along with 2.5 μg/mL Hoechst 33342 and incubated for 1 hour at room temperature. Cells were then washed again with TBS-T or TBS for 3× for 5 min each and covered with Gelvatol. Cells were imaged with an EVOS M7000 system, with at least 50% of each well in a 96 well plate imaged and analyzed using a CellProfiler pipeline for measuring integrated intensity, mean intensity, or nuclear to cytoplasmic ratio of mean intensities."}, "[5]": {"details": "human, in vivo; cited from earlier work"}, "[6]": {"details": "cited from earlier work"}},
  "note": "“Also recorded” adds a separate entry of the source.",
  "data": [
    {"smiles": "Nc1nnc(-c2cccc(Cl)c2Cl)c(N)n1", "note": "[Lamotrigine, lamotrigine]", "values": [
      {"measurement": "change in resting membrane potential compared to control", "setting": "NG108-15 cells [1]", "value": "significantly hyperpolarized"}
    ]},
    {"smiles": "CO[C@H]1C[C@@H]2CC[C@@H](C)[C@@](O)(O2)C(=O)C(=O)N2CCCC[C@H]2C(=O)O[C@H]([C@H](C)C[C@@H]2CC[C@@H](O)[C@H](OC)C2)CC(=O)[C@H](C)/C=C(\\C)[C@@H](O)[C@@H](OC)C(=O)[C@H](C)C[C@H](C)/C=C/C=C/C=C/1C", "note": "[Rapamycin, rapamycin]", "values": [
      {"measurement": "FUCCI cell cycle proportion", "setting": "[2]", "value": "increase in the G1 proportion"},
      {"measurement": "cell proliferation compared to control (words)", "setting": "NG108-15 cells [3]", "value": "very significant decrease in proliferation"},
      {"measurement": "FUCCI cell cycle proportion", "setting": "NG108-15 cells [3]; NG108-15, day 6", "value": "increase in cells arrested at G1; also recorded: increased the proportion of cells in G1"},
      {"measurement": "change in resting membrane potential compared to control", "setting": "NG108-15 cells [1]", "value": "significantly hyperpolarized"},
      {"measurement": "LC3-II stain", "setting": "NG108-15 cells [4]", "value": "significant increase"},
      {"measurement": "blood-brain barrier penetrance", "setting": "[5]", "value": "cross the blood brain barrier effectively"}
    ]},
    {"smiles": "CCOC(=O)Nc1ccc(NCc2ccc(F)cc2)cc1N", "note": "[Retigabine, retigabine]", "values": [
      {"measurement": "plasma protein binding affinity", "setting": "[6]", "value": "about 80%"},
      {"measurement": "change in resting membrane potential compared to control", "setting": "NG108-15 cells [1]", "value": "significantly hyperpolarized; also recorded: hyperpolarized NG108-15 cells only slightly"},
      {"measurement": "BrdU incorporation", "setting": "NG108-15 cells [4]", "value": "significant decrease"},
      {"measurement": "cleaved caspase 3 staining", "setting": "NG108-15 cells [4]", "value": "decrease the cleaved caspase 3 positive cells significantly"}
    ]},
    {"smiles": "Cn1nnc2c(C(N)=O)ncn2c1=O", "note": "[TMZ, temozolomide]", "values": [
      {"measurement": "cell proliferation compared to control (words)", "setting": "[2]; U87, 6 days", "value": "significantly effective"},
      {"measurement": "percent reduction in cells compared to control", "setting": "[2]; U87, 6 days of treatment", "value": 43, "unit": "%"},
      {"measurement": "FUCCI cell cycle proportion", "setting": "[2]", "value": "did not show a large change in proportion of cells"},
      {"measurement": "recovery of proliferation after treatment removed", "setting": "[2]; U87, drugs removed at day 6, followed to day 10", "value": "slight increase in proliferation after treatment was removed"},
      {"measurement": "cell proliferation compared to control (words)", "setting": "NG108-15 cells [3]", "value": "not significantly effective at reducing proliferation"},
      {"measurement": "cell proliferation compared to control (words)", "setting": "NG108-15 cells [3]; listed as temozolomide", "value": "not effective"},
      {"measurement": "change in resting membrane potential compared to control", "setting": "NG108-15 cells [1]", "value": "significantly hyperpolarized"}
    ]}
  ]
}
